Measured values: PMC12044245 (Emerging Infectious Diseases, 2025)

Key:
Type in all cases: biochemical
[1] = target: NA (neuraminidase) of A/Yamagata/292/2023 (Influenza A virus, UniProt C3W5S3)
[2] = target: NA (neuraminidase) of A/Yamagata/122/2023 (Influenza A virus, UniProt C3W5S3)
[3] = target: NA (neuraminidase) of A/Yamagata/177/2023 (Influenza A virus, UniProt C3W5S3)
[4] = target: NA (neuraminidase) of A/Yamagata/336/2023 (Influenza A virus, UniProt C3W5S3)
[5] = target: NA (neuraminidase) of A/Yamagata/312/2023 (Influenza A virus, UniProt C3W5S3)
[6] = target: NA (neuraminidase) of A/Yamagata/127/2023 (Influenza A virus, UniProt C3W5S3)
[7] = target: NA (neuraminidase) of A/Yamagata/135/2023 (Influenza A virus, UniProt C3W5S3)
[8] = target: NA (neuraminidase) of A/Yamagata/104/2024 (Influenza A virus, UniProt C3W5S3)

CCC(CC)[C@H](NC(C)=O)[C@@H]1[C@H](O)[C@@H](C(=O)O)C[C@H]1N=C(N)N [Peramivir, peramivir]
IC50 [1]: 0.09 nM
IC50 [2]: 0.08 nM
IC50 [3]: 0.06 nM
IC50 [4]: 0.09 nM
IC50 [5]: 0.11 nM
IC50 [6]: 0.08 nM
IC50 [7]: 0.08 nM
IC50 [8]: 0.09 nM
